One block for each molecule: values may come before it.
How the values were obtained:
[1] = test system: Xenopus embryos at developmental stage 22 to 32; conditions: cited from earlier work
insulin and XlHbox8 = assay: RT-PCR expression of pancreas-specific genes in explants; format: cell-based, Xenopus laevis; conditions: treated with one agent alone, cultured three days
Description: C., and the expression of insulin that is a pancreas-specific gene (Henry, G. L. et al.; Development 122, 1007-1015, 1996) and XlHbox8 (Lemaire, P. et al.; Development 125, 2371-2380, 1998) were examined by the method as previously described (Yokota, C. et al.; J. Biochem. 123, 339-346, 1998). […] EF-1α (elongation factor 1α) was used as a loading control. The combination of primers of each gene in PCR reaction that were used is as follows: insulin [insulin-[…] No. 1), insulin-[…] No. 2)], […] No. 3), […] No. 4)], […] No. 5), and […] No. 6)]. Seventy-six μl of DDW, 10 μl of 10×Ex buffer, 8 μl of 2.5 mM dNTPs mix, 0.5 μl of 5[…] 0.5 μl of 100 μM of each of the above-mentioned primers were added to 5 μl of the above-mentioned cDNA (20 ng/μl), and PCR reaction was conducted with the total amount of 100 μl. The thermal cycle program, which is a cycle to denature for four minutes at 94° C. only at the first time, followed by thermal denaturation for 30 seconds at 94° C., […], was repeated for 23 to 30 times. Ultimately, annealing was conducted for nine minutes at 72° C. […] As a negative control, EF-1α wherein RT-PCR was conducted under a condition where the reverse transcription factor had been eliminated was used.

[2] = test system: blastopore upper lip cell of Xenopus early gastrula; conditions: cited from earlier work
whole embryos = assay: Retinoic acid treatment of whole embryos from blastula to gastrula; format: in vivo, Xenopus
Description: Moreover, there has been a report regarding the effect of retinoic acid to the endoderm of Xenopus embryo (Zeynali, B. and Dixon, K. E.; Dev. Genes. Evol. 208, 318-326, 1998). […] The present inventors conducted retinoic acid treatment to the whole embryos from the period of blastula to gastrula. […] However, the physical relationship of each of the endodermal organs was abnormal and the endodermal organs were formed aggregately in the anterior and posterior axis direction.

Xenopus animal cap cells = conditions: cited from earlier work
[3] = test system: pieces of presumptive ectoderm of Xenopus late blastula; assay: Time lag treatment of pieces of presumptive ectoderm with activin then retinoic acid, tissues that differentiate; format: cell-based, Xenopus laevis; conditions: activin 100 ng/ml alone 1 h, 65 samples
Description: (§1) The dorsal lymph sacs of adult male and female Xenopus laevis were each injected with 600 IU of hCG (human chorionic gonadotropin; Gestron; Denka Seiyaku, Japan), and fertilized eggs were obtained by mating these Xenopuses. These late blastulas [developmental stage 9] were dejellied in Steinberg's solution (SS: 58.00 mM NaCl, 0.67 mM KCl, 0.34 mM Ca(NO3)2, 0.83 mM MgSO4, 3.00 mM HEPES and 100 mg/l kanamycin sulfate; pH 7.4) containing 4.5% cysteine hydrochloride (pH 7.8), and the vitelline membranes were removed in the Steinberg's solution by using a pair of watchmaker's tweezers. The presumptive ectoderm portion of Xenopus late blastula thus obtained was cut into a size of 0.4 mm×0.4 mm by using a tungsten needle.
A time lag was provided between the treatment with activin and treatment with retinoic acid, so that the action of retinoic acid can be received for the first time, after the differentiation to dorsal mesoderm/anterior endoderm had been determined by action of activin. […] After the elapse of the time lag, the pieces of presumptive ectoderm were left at rest in retinoic acid solution at 10^−4 M for one hour, washed two times with Steinberg's solution containing 0.1% BSA, and then cultured in Steinberg's solution containing 0.1% BSA at 20° C. for ten days (see time lag treatment in FIG. 1). These explants that had been cultured were stained in the same manner as described in Example 2, and the tissues that differentiated were observed and examined under a light microscope.

[4] = test system: pieces of presumptive ectoderm of Xenopus late blastula; assay: Simultaneous and continuous treatment of pieces of presumptive ectoderm with activin/retinoic acid, tissues that differentiate; format: cell-based, Xenopus laevis; conditions: continuous, activin 100 ng/ml, retinoic acid 0 M, 10 samples
Description: as §1
(§2) Human recombinant activin A (Ajinomoto Co., Inc.) was dissolved in Steinberg's solution containing 0.1% bovine serum albumin (BSA) to a concentration of 100 ng/ml, and an activin solution was prepared.
Based on the results from Example 2, since the effect of retinoic acid treatment was found in the differential pattern of mesodermal tissues, it can be considered that retinoic acid acted in the period when the fate of the mesoderm is determined to each mesodermal tissue (notochord, muscle, pronephric tubule and the like, for example). […] C. for 10 days (see continuous treatment in FIG. 1). These explants that had been cultured were stained in the same manner as in Example 2, and the tissues that differentiated were observed and examined by using a light microscope.

[5] = test system: pieces of presumptive ectoderm of Xenopus late blastula; assay: Simultaneous one-hour treatment of pieces of presumptive ectoderm with activin/retinoic acid, tissues that differentiate (light microscopy); format: cell-based, Xenopus laevis
Description: as §1, §2
C. (see temporary treatment in FIG. 1). These explants that had been cultured were fixed with Bouin's solution, followed by dehydration treatment of a series of ethanol and xylene, and these explants were embedded in paraffin and sliced into 6 μm sections. These sections were stained with hematoxylin and eosin, and the tissues that differentiated were observed and examined under a light microscope. Further, the untreated pieces of presumptive ectoderm were also observed and examined in the same manner by using a light microscope.

[6] = activin 100 ng/ml, retinoic acid 0 M, 1 h, 31 samples

morphology of treated embryos (whole embryos): head-deficient embryos
Molecule: CC1=C(/C=C/C(C)=C/C=C/C(C)=C/C(=O)O)C(C)(C)CCC1 [retinoic acid, All-trans retinoic acid]
expression of XlHbox8 [1]: no effect is found in the expression of XlHbox8
formation of pancreas [1]: formed normally
morphology of the digestive organs [1]: the morphology of the digestive organs such as intestines, liver and stomach become abnormal
expression of insulin and XlHbox8 (insulin and XlHbox8): expression of these genes was not found
pancreas formation [2]: enables pancreas formation with high efficiency
induction of pancreas in vivo (whole embryos; whole embryos treated from blastula to gastrula): pancreas was not induced specifically in vivo

Molecule: activin: Human recombinant activin A (Ajinomoto Co., Inc.)
induction of mesodermal tissues (Xenopus animal cap cells): induces most mesodermal tissues such as notochord, muscle, mesenchyme and coelomic epithelium, dose-dependently
expression of insulin and XlHbox8 (insulin and XlHbox8): induced only a little
Atypical epidermis differentiated in explants [3]: 0(0) number (percentage)
Cartilage differentiated in explants [3]: 12(18) number (percentage)
Coelomic epithelium differentiated in explants [3]: 28(43) number (percentage)
Epidermis differentiated in explants [3]: 59(91) number (percentage)
Intestinal epithelium differentiated in explants [3]: 3(5) number (percentage)
Mesenchyme differentiated in explants [3]: 59(91) number (percentage)
Muscle differentiated in explants [3]: 37(57) number (percentage)
Neural tissue differentiated in explants [3]: 32(49) number (percentage)
Notochord differentiated in explants [3]: 34(52) number (percentage)
Pancreas differentiated in explants [3]: 0(0) number (percentage)
Pharyngeal epithelium differentiated in explants [3]: 37(57) number (percentage)
Pronephric tubule differentiated in explants [3]: 5(8) number (percentage)
Yolk-rich cell differentiated in explants [3]: 29(45) number (percentage)
Atypical epidermis differentiated in explants [4]: 0(0) number (percentage)
Cartilage differentiated in explants [4]: 1(10) number (percentage)
Coelomic epithelium differentiated in explants [4]: 4(40) number (percentage)
Epidermis differentiated in explants [4]: 9(90) number (percentage)
Intestinal epithelium differentiated in explants [4]: 0(0) number (percentage)
Mesenchyme differentiated in explants [4]: 9(90) number (percentage)
Muscle differentiated in explants [4]: 10(100) number (percentage)
Neural tissue differentiated in explants [4]: 10(100) number (percentage)
Notochord differentiated in explants [4]: 3(30) number (percentage)
Pancreas differentiated in explants [4]: 0(0) number (percentage)
Pharyngeal epithelium differentiated in explants [4]: 5(50) number (percentage)
Pronephric tubule differentiated in explants [4]: 0(0) number (percentage)
Yolk-rich cell differentiated in explants [4]: 5(50) number (percentage)
Atypical epidermis differentiated in explants [5, 6]: 0(0) number (percentage)
Cartilage differentiated in explants [5, 6]: 5(16) number (percentage)
Coelomic epithelium differentiated in explants [5, 6]: 15(48) number (percentage)
Epidermis differentiated in explants [5, 6]: 30(97) number (percentage)
Intestinal epithelium differentiated in explants [5, 6]: 0(0) number (percentage)
Mesenchyme differentiated in explants [5, 6]: 31(100) number (percentage)
Muscle differentiated in explants [5, 6]: 25(81) number (percentage)
Neural tissue differentiated in explants [5, 6]: 12(39) number (percentage)
Notochord differentiated in explants [5, 6]: 4(13) number (percentage)
Pancreas differentiated in explants [5, 6]: 0(0) number (percentage)
Pharyngeal epithelium differentiated in explants [5, 6]: 12(39) number (percentage)
Pronephric tubule differentiated in explants [5, 6]: 7(23) number (percentage)
Yolk-rich cell differentiated in explants [5, 6]: 18(58) number (percentage)
tissues that differentiated ([5]; treated only with activin (100 ng/ml)): dorsal mesodermal and anterior endodermal tissues such as notochord, muscle, pharyngeal epithelium and the like differentiated
